Experimental data from US5861477A (priority 1996, dated 1999).
Entries after “also recorded” stand apart in the source; their conditions may differ. Read-outs that look alike come from different tables or passages of the source. Bridges are numbered along the chain shown (N, C = ends). Where no end group is shown, it is not given here.

Tests used:
TrPepz = TrPepz (synthetic cyclic peptide catalyst mimicking the active site of trypsin); conditions: up to 3 hrs
[1] = tested on: model peptides (SEQ ID NO:7-10); assay: Action of TrPepz on model peptides; assay type: biochemical
myoglobin and casein = assay: Hydrolysis of proteins by enzymes or peptide enzyme catalysts (peptide maps); assay type: biochemical, sperm-whale (myoglobin), bovine (casein)
Description: Hydrolysis of Proteins by Enzymes or Peptide Enzyme Catalysts. Hydrolyses were done at 37° C. on aliquots (200 μl) containing 1 mg of myoglobin (5.6×10-2 μmoles) or casein (4.2×10^-2 μmoles) in 0.1M triethylamine-acetic acid buffer, pH 8.0 with 51 μg of αCT (2.06×10^-3 μmoles) and 2.9 μg of ChPepz (1.1×10^-3 μmoles) for 31/2 hrs or with 49 μg trypsin (2.06×10^-3 μmoles) and 5.0 μg TrPepz (1.87×10^-3 μmoles) for 8 hrs. The samples were then acidified (to pH 3.0) with 0.1M HCl freeze-dried and redissolved in 100 μl of H2 O at pH 3.0, and the entire sample was applied as a single spot to Whatman No. 3MM paper and subjected, in the first dimension, to ascending chromatography in n-butanol-acetic acid-water (4:1:5, vol/vol) followed by high voltage electrophoresis (3000 volts, 55 min), in the second dimension, in pyridine-acetic acid-water (1:10:289, vol/vol), pH 3.65, as described (Atassi, M. Z. and Saplin, B. J. (1968) Biochemistry 7, 688-698). The papers were then dried, steamed and stained with 0.2% ninhydrin in ethanol and the color was allowed to develop at room temperature. The papers were photographed 48 hrs after staining.

[2] = Tryptic activity: hydrolysis of TAME; assay type: biochemical; conditions: for Km / kcat / kcat /Km: hydrolysis of TAME, pH 8.0 and 25° C.
Description: Tryptic activity. Measurement of tryptic activity was done in 0.046M Tris-HCl buffer, pH 8.0, containing 0.0115M CaCl2 as described (Hummel, B. C. W. (1959), id) using TAME as the substrate. For the assays, 8.4×10^-4 μmoles of […] or 1.6 c 10^-3 μmoles of TrPepz were allowed to hydrolyze different amounts of substrate at 25° C. in a total reaction volume of 1.0 ml. […] Kinetic constants for hydrolysis of BTEE and TAME were determined from the linear plots of 1/initial velocity (Vi in μmoles/min) versus 1/substrate concentration as described (Lineweaver, H. and Burk, D. (1934) J. Amer. Chem. Soc. 56, 658).
To TAME solutions (1 ml containing different amounts of substrate), an aliquot (10 μl) of TrPepz, or negative control peptide solutions (containing 1-10 μg/10 μl) was added, mixed immediately and the increase of absorbance at 247 nm was measured at 37° C. (or at room temperature).
TrPepz solutions were always made immediately before use. Although TrPepz has no potential tryptic cleavage points, it lost activity on standing in solution at 4° C. […] TrPepz will not act on chromogenic substrates--it was inhibited by p-nitro analine (and probably is inhibited by other aromatic amines). After mixing TrPepz with substrate, there was a lag of 2-5 minutes (depending on pepzyme/substrate ratio) before any change in A247 was observed. In the early stages of the purification, the activity was always monitored over a period of several hours. Negative controls (containing unrelated peptides in amounts similar to those of TrPepz in the test samples) were also monitored at the same time because the background absorbance will increase and the test samples had to be corrected for this background. As the sample's purity improved, maximum A247 was achieved more quickly.
Inhibition of Enzymatic Activity. The effects of inhibitors or disulfide bond reduction on enzymatic activities were done as described above except that the enzymes were pre-mixed (3 hrs, 25° C.) with 10 molar excess of inhibitor (or DTT) prior to addition to the substrate (140-150 molar excess relative to the catalyst). Activities were monitored spectrophotometrically as above and were compared to uninhibited controls.
In addition, test were performed which compared the activity of the two proteases under differing temperature parameters.

[3] = Loss of pepzyme activity on storage in solution and on freezing and thawing; assay type: physicochemical
Description: (§1) ChPepz solution was made in 10^-3 N HCl, since it will not digest itself in this solvent. Solutions of ChPepz were always made immediately before use. […] After mixing ChPepz with substrate (BTEE), there was typically a lag of 2-5 min (depending on pepzyme/substrate ratio) before any change in A256 was observed. However, in the early stages of the purification, the activity needed to be monitored over a period of several hours. It was important to ensure that negative controls (containing unrelated peptides in amounts similar to those of ChPepz in the test samples) were also monitored at the same time because the background absorbance will increase and the test samples had to be corrected for this background. As the sample's purity improves, maximum A256 was achieved more quickly. See, e.g., Atassi, M. Z. in Immunochemistry of Proteins, ed. M. Z. Atassi, Vol. 2, pp. 77-176, Plenum, New York, N.Y. (1977); King, D. S., et al. Int. J. Pept. Prot. Res. 36: 255-266 (1990).
TrPepz solutions were always made immediately before use. […] In the early stages of the purification, the activity was always monitored over a period of several hours. Negative controls (containing unrelated peptides in amounts similar to those of TrPepz in the test samples) were also monitored at the same time because the background absorbance will increase and the test samples had to be corrected for this background. […]

[4] = Chymotryptic activity: hydrolysis of BTEE; assay type: biochemical; conditions: in words
Description: Chymotryptic activity. The catalytic activity of αCT and CHPepz was determined by hydrolysis of BTEE in 0.08M Tris buffer, pH 7.8 containing 0.01M CaCl2 as described (Hummel, B. C. W. (1959) Can. J. Biochem. Physiol. 37, 1393-1399). Assays were done at 25° C. using 8.06×10^-4 μmoles of αCT or 7.49×10^-4 μmoles of ChPepz and different substrate concentrations (from 3 to 6 mM) in a total reaction volume of 1.0 ml. The change of absorbance at 256 nm was monitored on a recording spectrophotometer against a reference cuvette containing 1 ml of the same concentration of BTEE, but without αCT or ChPepz.
1.0 ml of substrate (BTEE) was mixed with solutions (10 μl aliquots) of ChPepz, or negative control peptides (containing 1-10 μg/10 μl) or αCT and activity was monitored by increase in absorbance at 256 nm at 37° C. (or at room temperature).
as §1, with “M. Z. Atassi, Vol. 2, pp. 77-176, Plenum, New York, N.Y. (1977); King, D. S., et al. Int. J. Pept. Prot. Res. 36: 255-266 (1990).” left out
Tryptic activity. […] Kinetic constants for hydrolysis of BTEE and TAME were determined from the linear plots of 1/initial velocity (Vi in μmoles/min) versus 1/substrate concentration as described (Lineweaver, H. and Burk, D. (1934) J. Amer. Chem. Soc. 56, 658).
Inhibition of Enzymatic Activity. […] Activities were monitored spectrophotometrically as above and were compared to uninhibited controls. […]

[5] = TAME, pH 8.0 and 25° C., cited from earlier work

With DNYRGYSLG the cleaved bond (TrPepz) was “Arg-Gly”.

In the case of “cyclo(-S-cystinyl-glycyl-tyrosyl-histidyl-phenylalanyl-glycyl-glycyl-seryl- aspartyl-glycyl-glutamyl-glycyl-seryl-aspartyl-glycyl-glycyl-valyl-seryl-tryptophanyl-glycyl-leucyl-glycyl-glycyl-aspartyl-glycyl-alanyl-alanyl-histidyl-cystinyl-S) (CGYHFGGSDGEGSDGGVSWGLGGDGAAHC; disulfide 1-29) [TrPepz]”, the “hydrolysis of the Lys-Gly bond of peptide SEQ ID NO:7” value ([1]; 3 hrs, molar ratio of substrate/TrPepz, 1:60) is reported as “over 95%”, the “cleavage of lysozyme sequences SEQ ID NO:8, 9, 10 at the C-bond of lysine and arginine” value ([1]; no other products) is reported as “completely cleaved” and the “hydrolysis of myoglobin and casein, peptides compared with those of the respective enzyme” value (myoglobin and casein; 37° C., pH 8.0, 3 1/2 hrs (ChPepz) or 8 hrs (TrPepz)) is reported as “essentially the same as the pattern of the respective protein obtained by tryptic hydrolysis”. The “proteolytic activity in presence of DIFP” value (myoglobin and casein; protein substrates) was “completely inhibited”, the “proteolytic activity in presence of PMSF” value (myoglobin and casein; protein substrates) was “completely inhibited” and the “proteolytic activity in presence of TPCK” value (myoglobin and casein; protein substrates) was “no effect”. The “efficiency at hydrolyzing Lys-Lys, Lys-Lys-Lys, Arg-Lys and Lys-Arg bonds compared with trypsin” value (myoglobin and casein; yields of lysine and arginine in hydrolysates) was “more efficient than trypsin”, the “activity on TAME after reduction of the disulfide bond (cyclic structure)” value ([2]; 10 molar excess of DTT) was “zero activity; also recorded: fully inactivated; also recorded: completely lost” and the “activity on TAME in presence of TPCK” value ([2]; 10 molar excess of TPCK) was “the two curves superimposed; also recorded: not by TPCK; also recorded: not affected”. The “activity on TAME in presence of BPTI” value ([2]; 10 molar excess of inhibitor) was “zero activity; also recorded: completely inhibited; also recorded: inhibited entirely”, the “activity on TAME in presence of DIFP” value ([2]; 10 molar excess of inhibitor) was “zero activity; also recorded: fully inactivated; also recorded: inhibited entirely; also recorded: completely inhibited” and the “activity on TAME in presence of PMSF” value ([2]; 10 molar excess of inhibitor) was “zero activity; also recorded: fully inactivated; also recorded: inhibited entirely; also recorded: completely inhibited”. The “activity on TAME in presence of human α1 -antitrypsin” value ([2]; 10 molar excess of inhibitor) was “zero activity; also recorded: completely inhibited; also recorded: inhibited entirely”, the “activity on TAME in presence of soybean trypsin inhibitor” value ([2]; 10 molar excess of inhibitor) was “completely inhibited; also recorded: inhibited entirely” and the “% Activity of Native Enzyme at 35° C.” value ([2]; Temp. 10) was 7.4%. The “% Activity of Native Enzyme at 35° C.” value ([2]; Temp. 35) was “approx. 40%”, the “% Activity of Native Enzyme at 35° C.” value ([2]; Temp. 48) was “approx. 50%” and the “lag before any change in A247” value ([2]; after mixing with substrate, depends on pepzyme/substrate ratio) was 2 to 5 min. The Km [2] was 2420 ± 90 µM, the kcat [2] was 85 ± 2.6 sec.^-1 and the “kcat /Km” value [2] was 35000 M⁻¹ s⁻¹. For the same molecule, the “rate of TAME hydrolysis relative to the rate obtained with the enzyme itself” value ([2]; relative to trypsin) was “about 40%”, the “inhibition by p-nitro analine” value ([2]; will not act on chromogenic substrates) was “inhibited” and the “freezing and thawing cycles to complete loss of activity” value [3] was 5 cycles. The “time to complete loss of activity on storage in solution” value ([3]; 4° C.) was “two” and the “hydrolytic activity on BTEE” value [4] was “zero activity; also recorded: no effect; also recorded: not hydrolyzed; also recorded: not hydrolysed”.

In the case of QLEPSTSSAVPLIGKG, the cleaved bond (TrPepz) is reported as “Lys-Gly”.

B1: Trypsin: native bovine trypsin (TPCK-trypsin, Worthington), positive control (protein, UniProt P00760 24-246, looked up)
Serine protease 1: IVGGYTCGANTVPYQVSLNSGYHFCGGSLINSQWVVSAAHCYKSGIQVRLGEDNINVVEGNEQFISASKSIVHPSYNSNTLNNDIMLIKLKSAASLNSRVASISLPTSCASAGTQCLISGWGNTKSSGTSYPDVLKCLKAPILSDSSCKSAYPGQITSNMFCAGYLEGGKDSCQGDSGGPVVCSGKLQGIVSWGSGCAQKNKPGVYTKVCNYVSWIKQTIASN
modifications: TPCK-treated
notes: native bovine trypsin (TPCK-trypsin, Worthington), positive control
With B1 the “% Activity of Native Enzyme at 35° C.” value ([2]; Temp. 10) was 4.5%, the “% Activity of Native Enzyme at 35° C.” value ([2]; Temp. 35) was 100% and the “% Activity of Native Enzyme at 35° C.” value ([2]; Temp. 48) was 67%. For the same molecule, the Km [2] was 2560 ± 160 µM, the kcat [2] was 221 ± 9.7 sec.^-1 and the “kcat /Km” value [2] was 86000 M⁻¹ s⁻¹. The kcat ([2]; listed as trypsin) was 221 sec.^-1, the “hydrolytic activity on TAME” value ([2]; in words) was “hydrolyzes” and the “hydrolytic activity on BTEE” value [4] was “zero activity; also recorded: does not hydrolyze”. For the same molecule, the “hydrolytic activity on BTEE” value ([4]; listed as trypsin) was “not hydrolysed”, the Km ([5]; Lorand et al. 1961, read-out: Km reported value) was 2760 µM and the kcat reported value ([5]; Martin et al. 1959) was 187 s⁻¹.
